Target: H1047R PIK3CA enzyme (Homo sapiens, UniProt P42336, H1047R)
Assay: ADP-Glo Biochemical PIK3CA Kinase Assay

H1047R PIK3CA enzyme, sequence (P42336 whole entry H1047R): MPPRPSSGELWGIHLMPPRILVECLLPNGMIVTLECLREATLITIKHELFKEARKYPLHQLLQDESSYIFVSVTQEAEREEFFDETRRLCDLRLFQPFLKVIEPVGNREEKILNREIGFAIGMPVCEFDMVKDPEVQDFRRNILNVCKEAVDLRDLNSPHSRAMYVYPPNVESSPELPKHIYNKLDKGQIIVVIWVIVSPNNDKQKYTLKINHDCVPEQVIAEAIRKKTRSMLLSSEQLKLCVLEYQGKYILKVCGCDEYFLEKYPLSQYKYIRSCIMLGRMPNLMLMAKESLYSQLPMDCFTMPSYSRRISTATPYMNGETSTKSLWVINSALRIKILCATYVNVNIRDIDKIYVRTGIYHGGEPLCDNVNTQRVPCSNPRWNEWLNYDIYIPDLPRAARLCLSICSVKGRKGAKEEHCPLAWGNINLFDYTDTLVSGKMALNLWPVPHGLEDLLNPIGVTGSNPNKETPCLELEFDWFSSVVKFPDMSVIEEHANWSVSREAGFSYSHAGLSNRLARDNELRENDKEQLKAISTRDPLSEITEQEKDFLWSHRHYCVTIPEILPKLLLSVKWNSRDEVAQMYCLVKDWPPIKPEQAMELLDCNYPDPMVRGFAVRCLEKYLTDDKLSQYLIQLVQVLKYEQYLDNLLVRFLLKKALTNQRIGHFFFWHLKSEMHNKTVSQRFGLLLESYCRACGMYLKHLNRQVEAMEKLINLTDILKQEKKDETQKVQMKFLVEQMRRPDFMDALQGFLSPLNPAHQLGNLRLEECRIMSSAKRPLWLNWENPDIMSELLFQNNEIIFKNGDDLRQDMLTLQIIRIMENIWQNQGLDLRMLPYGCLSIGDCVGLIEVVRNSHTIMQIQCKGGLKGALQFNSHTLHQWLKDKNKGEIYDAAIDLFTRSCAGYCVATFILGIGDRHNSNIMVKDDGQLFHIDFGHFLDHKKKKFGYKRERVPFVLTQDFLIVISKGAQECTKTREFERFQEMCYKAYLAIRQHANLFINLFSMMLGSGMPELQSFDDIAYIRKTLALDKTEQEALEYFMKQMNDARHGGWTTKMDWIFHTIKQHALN
H1047R PIK3CA enzyme, sequence (P27986 whole entry partner): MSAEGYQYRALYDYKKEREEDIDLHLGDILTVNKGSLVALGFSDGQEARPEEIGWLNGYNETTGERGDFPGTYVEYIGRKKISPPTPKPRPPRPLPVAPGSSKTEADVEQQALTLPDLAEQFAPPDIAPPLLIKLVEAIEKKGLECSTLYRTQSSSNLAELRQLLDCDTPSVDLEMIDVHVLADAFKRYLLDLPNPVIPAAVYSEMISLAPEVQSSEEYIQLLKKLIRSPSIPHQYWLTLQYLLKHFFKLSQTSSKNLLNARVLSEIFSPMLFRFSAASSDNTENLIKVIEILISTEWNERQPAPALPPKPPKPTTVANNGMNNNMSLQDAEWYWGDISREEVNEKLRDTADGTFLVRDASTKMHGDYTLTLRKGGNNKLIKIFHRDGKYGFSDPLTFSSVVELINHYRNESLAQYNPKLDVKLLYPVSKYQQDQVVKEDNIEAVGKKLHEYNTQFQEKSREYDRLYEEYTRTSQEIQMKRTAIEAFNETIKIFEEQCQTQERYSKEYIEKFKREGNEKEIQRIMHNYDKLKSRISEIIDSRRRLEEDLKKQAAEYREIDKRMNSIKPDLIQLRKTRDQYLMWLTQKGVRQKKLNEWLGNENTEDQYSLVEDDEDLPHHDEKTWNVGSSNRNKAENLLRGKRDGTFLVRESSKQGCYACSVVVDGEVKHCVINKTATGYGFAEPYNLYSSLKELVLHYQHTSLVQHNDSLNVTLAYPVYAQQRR

SMILES | IC50
O=C(Nc1cc(-c2ccn3ccnc3c2)cc2c1[C@@H](c1cc(F)ccc1Cl)NC2=O)c1cc(F)cc(C(F)(F)F)c1 [Compound I-1451] | 100 to 500 nM
O=C(Nc1cc(-c2ccc3nnnn3c2)cc2c1[C@@H](c1cc(F)ccc1Cl)NC2=O)c1cc(F)cc(C(F)(F)F)c1 [Compound I-1452] | 1000 to 10000 nM
O=C(Nc1cc(-c2ccc3nnnn3c2)cc2c1[C@H](c1cc(F)ccc1Cl)NC2=O)c1cc(F)cc(C(F)(F)F)c1 [Compound I-1453] | ≤ 100 nM
N#CCn1ccnc1-c1cc(NC(=O)c2cc(F)cc(C(F)(F)F)c2)c2c(c1)C(=O)NC2c1cc(F)ccc1Cl (centres unmarked) [Compound I-1454] | 100 to 500 nM
CS(=O)(=O)c1ccc(-c2cc(NC(=O)c3cc(F)cc(C(F)(F)F)c3)c3c(c2)C(=O)NC3c2cc(F)ccc2Cl)cn1 (centres unmarked) [Compound I-1455] | ≤ 100 nM
CS(=O)(=O)c1ccc(-c2cc(NC(=O)c3cc(F)cc(C(F)(F)F)c3)c3c(c2)C(=O)NC3c2cc(F)ccc2Cl)nc1 (centres unmarked) [Compound I-1456] | ≤ 100 nM
O=C(Nc1cc(-c2ccc3ncnn3n2)cc2c1C(c1cc(F)ccc1Cl)NC2=O)c1cc(F)cc(C(F)(F)F)c1 (centres unmarked) [Compound I-1458] | ≤ 100 nM
CC(c1ccccc1O)N(C)C(=O)Nc1cc(Br)cc2c1C(c1cc(F)ccc1Cl)NC2=O (centres unmarked) [Compound I-1459] | 10000 to 100000 nM
O=C1NC(c2cc(F)ccc2Cl)c2c(Nc3nccc4cc[nH]c34)cc(Br)cc21 (centres unmarked) [Compound I-1460] | 10000 to 100000 nM
O=C1NC(c2cc(F)ccc2Cl)c2c(Nc3nccc4ccsc34)cc(Br)cc21 (centres unmarked) [Compound I-1461] | 10000 to 100000 nM
O=C1NC(c2cc(F)ccc2Cl)c2c(NC(=O)N3CC4(CC4)c4ccccc43)cc(Br)cc21 (centres unmarked) [Compound I-1462] | 100 to 500 nM
O=C(Nc1cc(CC(O)CCO)cc2c1C(c1cc(F)ccc1Cl)NC2=O)c1cc(F)cc(C(F)(F)F)c1 (centres unmarked) [Compound I-1463] | ≤ 100 nM
O=C(Nc1cc(-c2cnc(-c3ncco3)nc2)cc2c1C(c1cc(F)ccc1Cl)NC2=O)c1cc(F)cc(C(F)(F)F)c1 (centres unmarked) [Compound I-1464] | ≤ 100 nM
O=C(Nc1cc(-c2cnn(-c3ccncn3)c2)cc2c1C(c1cc(F)ccc1Cl)NC2=O)c1cc(F)cc(C(F)(F)F)c1 (centres unmarked) [Compound I-1465] | ≤ 100 nM
NS(=O)(=O)CCNC(=O)c1cc(NC(=O)c2cc(F)cc(C(F)(F)F)c2)c2c(c1)C(=O)NC2c1cc(F)ccc1Cl (centres unmarked) [Compound I-1469] | ≤ 100 nM
O=C(Nc1cc(CS(=O)(=O)Cc2ccncc2)cc2c1C(c1cc(F)ccc1Cl)NC2=O)c1cc(F)cc(C(F)(F)F)c1 (centres unmarked) [Compound I-1470] | ≤ 100 nM

SMILES | IC50
O=C(Nc1cc(CS(=O)(=O)Cc2cc[n+]([O-])cc2)cc2c1C(c1cc(F)ccc1Cl)NC2=O)c1cc(F)cc(C(F)(F)F)c1 (centres unmarked) [Compound I-1471] | ≤ 100 nM
O=C(Nc1cc(-c2cnc(OCCO)nc2)cc2c1C(c1cc(F)ccc1Cl)NC2=O)c1cc(F)cc(C(F)(F)F)c1 (centres unmarked) [Compound I-1474] | ≤ 100 nM
O=C(Nc1cc(Cc2ccc3c(c2)CCNC3=O)cc2c1C(c1cc(F)ccc1Cl)NC2=O)c1cc(F)cc(C(F)(F)F)c1 (centres unmarked) [Compound I-1475] | ≤ 100 nM
CS(=O)(=O)CCc1cc(NC(=O)c2cc(F)cc(C(F)(F)F)c2)c2c(c1)C(=O)NC2c1cc(F)ccc1Cl (centres unmarked) [Compound I-1476] | ≤ 100 nM
O=C(Nc1cc(NC(=O)c2cc(F)cc(C(F)(F)F)c2)c2c(c1)C(=O)N[C@H]2c1cc(F)ccc1Cl)c1cccnc1 [Compound I-1477] | ≤ 100 nM
NS(=O)(=O)Cc1cc(NC(=O)c2cc(F)cc(C(F)(F)F)c2)c2c(c1)C(=O)N[C@@H]2c1cc(F)ccc1Cl [Compound I-1479] | 1000 to 10000 nM
NS(=O)(=O)Cc1cc(NC(=O)c2cc(F)cc(C(F)(F)F)c2)c2c(c1)C(=O)N[C@H]2c1cc(F)ccc1Cl [Compound I-1480] | ≤ 100 nM
NC(=O)Cn1cc(-c2cc(NC(=O)c3cc(F)cc(C(F)(F)F)c3)c3c(c2)C(=O)NC3c2cc(F)ccc2Cl)cn1 (centres unmarked) [Compound I-1481] | ≤ 100 nM
O=C(Nc1cc(-c2cnc(-n3ccnc3)nc2)cc2c1C(c1cc(F)ccc1Cl)NC2=O)c1cc(F)cc(C(F)(F)F)c1 (centres unmarked) [Compound I-1482] | ≤ 100 nM
O=C(Nc1cc(-c2cnc(-n3cccn3)nc2)cc2c1C(c1cc(F)ccc1Cl)NC2=O)c1cc(F)cc(C(F)(F)F)c1 (centres unmarked) [Compound I-1483] | ≤ 100 nM
O=C(Nc1cc(CS(=O)(=O)N2CCOCC2)cc2c1[C@@H](c1cc(F)ccc1Cl)NC2=O)c1cc(F)cc(C(F)(F)F)c1 [Compound I-1484] | 1000 to 10000 nM
O=C(Nc1cc(CS(=O)(=O)N2CCOCC2)cc2c1[C@H](c1cc(F)ccc1Cl)NC2=O)c1cc(F)cc(C(F)(F)F)c1 [Compound I-1485] | ≤ 100 nM
CS(=O)(Cc1cc(NC(=O)c2cc(F)cc(C(F)(F)F)c2)c2c(c1)C(=O)NC2c1cc(F)ccc1Cl)=Nc1cccnc1 (centres unmarked) [Compound I-1486] | ≤ 100 nM
N#Cc1cccc([S+]([O-])Cc2cc(NC(=O)c3cc(F)cc(C(F)(F)F)c3)c3c(c2)C(=O)NC3c2cc(F)ccc2Cl)c1 (centres unmarked) [Compound I-1487] | ≤ 100 nM
CN(C)S(=O)(=O)Cc1cc(NC(=O)c2cc(F)cc(C(F)(F)F)c2)c2c(c1)C(=O)N[C@@H]2c1cc(F)ccc1Cl [Compound I-1488] | 1000 to 10000 nM
CN(C)S(=O)(=O)Cc1cc(NC(=O)c2cc(F)cc(C(F)(F)F)c2)c2c(c1)C(=O)N[C@H]2c1cc(F)ccc1Cl [Compound I-1489] | ≤ 100 nM
